We go through two compounds from patent US7892840B2, “Media compositions for eluting compounds from matrices and methods for making and using them” (Medtronic MiniMed, Inc., priority 2008, dated 2011).

Structures are written as SMILES. Like-named read-outs stand apart in the source and are kept apart here.

For data set [1] the following is noted: cited from earlier work.
A short description of data set [2]: Elution of dexamethasone sodium phosphate from drug coated pace maker leads in conventional media. The note with it: e.g. a media that utilizes just a surfactant. The data set is classed as physicochemical. The source says: The data disclosed in FIGS. 1-6 provides illustrative embodiments of the methods of invention that examine the elution of dexamethasone sodium phosphate from a polymeric silicone matrix. These examples provide an illustration of the power of the methodological embodiments of the invention, in particular in view of the fact that the elution of dexamethasone sodium phosphate from silicone polymer/drug coated pace maker leads is known to be minimal in conventional solvents. For example, certain elution media and methods may not be ideal for all drugs (e.g. dexamethasone sodium phosphate). For example, dexamethasone sodium phosphate is water soluble whereas typical methodologies described in the art are more suitable for water insoluble or sparingly soluble drugs. […]
While the methodological embodiments of the invention can be used to assess the elution of a wide variety of compounds from a wide variety of matrices, these methods of the invention are particularly useful in the context of the manufacture of drug eluting implantable medical devices. For example, the safety and efficacy of drug coated pace maker leads are readily evaluated using the unique dissolution methods and materials disclosed herein. […]

The format of data set [3] is physicochemical. As for the experimental part: To evaluate buffers with different pH, Dexamethasone sodium phosphate can be dissolved in an elution media (e.g. one of the different embodiments of the invention disclosed herein). […] This concentration was about 10 times the concentration that might be observed if the drug from the typical device was completely eluted in about 75 mL of media.

The conditions of data set [4]: cited from earlier work. The source holds these as a separate data set.

Take `OCc1ccccc1` [Benzyl alcohol, Phenylmethanol]: in data set [1] (alcohols and ether), the “miscibility in alcohols and ether” value was “completely miscible”. Moreover, the solubility in water in data set [1] is 4 g/100 mL.
For the compound `C[C@@H]1C[C@H]2[C@@H]3CCC4=CC(=O)C=C[C@]4(C)[C@@]3(F)[C@@H](O)C[C@]2(C)[C@@]1(O)C(=O)COP(=O)(O)O` [Dexamethasone sodium phosphate], the “elution of the drug in conventional media systems” value in data set [2] is “minimal”. Also, the “stability with respect to pH (rank order)” value in data set [3] is on record as “pH 4>pH 7.5>pH 9”. For the same compound, the “elution from silicone polymer/drug coated pace maker leads in conventional solvents” value in data set [4] is “minimal”. The solubility in water result in data set [1] (in words) is reported as “freely soluble in water”; in data set [1] (in words, listed as dexamethasone sodium phosphate), “water soluble”.
